{"source": "patent US5430033A", "about": "“Piperazine derivatives” (John Wyeth & Brother Ltd., priority 1993, dated 1995)", "key": {"5-HT1A receptor [1]": {"target": "T1, 5-HT1A receptor (Cavia porcellus, UniProt A0A286Y074)", "T1 construct": "guinea-pig ileum in vitro; from tissue; host or cells: guinea-pig ileum", "T1 sequence (A0A286Y074 1-421)": "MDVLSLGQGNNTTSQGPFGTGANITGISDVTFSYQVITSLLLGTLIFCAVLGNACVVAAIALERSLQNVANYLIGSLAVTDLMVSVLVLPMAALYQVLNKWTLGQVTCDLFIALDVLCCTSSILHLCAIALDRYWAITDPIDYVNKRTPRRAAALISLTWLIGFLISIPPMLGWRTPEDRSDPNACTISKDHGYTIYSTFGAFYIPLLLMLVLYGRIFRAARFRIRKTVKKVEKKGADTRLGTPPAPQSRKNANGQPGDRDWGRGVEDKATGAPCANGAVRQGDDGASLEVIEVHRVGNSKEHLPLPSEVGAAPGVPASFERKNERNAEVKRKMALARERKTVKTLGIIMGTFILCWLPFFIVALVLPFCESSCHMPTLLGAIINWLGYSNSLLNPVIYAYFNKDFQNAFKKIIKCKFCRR", "assay": "5-HT1A receptor antagonism: antagonism of 5-carboxamidotryptamine in the guinea-pig ileum in vitro", "assay_type": "cell-based", "procedure": "The compounds are tested for 5-HT1A receptor antagonism activity in a test involving the antagonism of 5-carboxamidotryptamine in the guinea-pig ileum in vitro (based upon the procedure of Fozard et al, Br J Pharmac, 1985, 86, 601P)."}, "5-HT1A receptor [2]": {"target": "T2, 5-HT1A receptor (Rattus norvegicus, UniProt P19327)", "T2 construct": "rat hippocampal membrane homogenate; from tissue; host or cells: rat hippocampus, membrane homogenate", "T2 sequence (P19327 1-422)": "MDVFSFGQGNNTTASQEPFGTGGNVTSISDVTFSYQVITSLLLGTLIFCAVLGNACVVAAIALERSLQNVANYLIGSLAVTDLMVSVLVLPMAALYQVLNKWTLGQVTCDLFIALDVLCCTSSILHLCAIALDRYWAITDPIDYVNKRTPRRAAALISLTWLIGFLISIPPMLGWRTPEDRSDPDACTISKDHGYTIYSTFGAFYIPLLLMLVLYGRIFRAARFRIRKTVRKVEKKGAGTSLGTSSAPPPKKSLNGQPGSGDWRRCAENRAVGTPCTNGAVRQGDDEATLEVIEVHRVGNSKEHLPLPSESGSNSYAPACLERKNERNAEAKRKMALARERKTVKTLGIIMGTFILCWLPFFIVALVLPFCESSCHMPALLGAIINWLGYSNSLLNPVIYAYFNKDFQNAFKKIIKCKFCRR", "assay": "5-HT1A receptor binding activity in rat hippocampal membrane homogenate", "settings": "method of Alexander and Wood", "procedure": "The compounds of the invention are tested for 5-HT1A receptor binding activity in rat hippocampal membrane homogenate by the method of B S Alexander and M D Wood, J Pharm Pharmacol, 1988, 40, 888-891."}}, "data": [{"smiles": "COc1ccccc1N1CCN(CCc2ccccc2-c2ccccc2)CC1", "note": "[Example 3, 1-(2-(2-biphenyl)ethyl)-4-(2-methoxyphenyl)piperazine]", "values": [{"measurement": "pA2, 5-HT1A receptor antagonism", "setting": "5-HT1A receptor [1]", "value": 8.1}, {"measurement": "IC50", "setting": "5-HT1A receptor [2]", "value": 2, "unit": "nM"}]}]}
